In the NIST ThermoML archive (doi:10.1021/je2013704):
± gives the expanded uncertainty stated by the source.

Assay: mn = molality of the nth substance listed, in mol/kg
Conditions: Liquid, Vibrating tube method

[Cl-].[Na+] [sodium chloride] + O
mass density [kg/m3]
Conditions	298.12 K	323.07 K	348.04 K	372.99 K	397.97 K	422.94 K	447.94 K	472.96 K
900 kPa, m1 = 1.06	1038.78 ± 0.08	1028.45 ± 0.07	1014.93 ± 0.07	998.89 ± 0.07	980.42 ± 0.08	959.71 ± 0.09	936.49 ± 0.11	–
900 kPa, m1 = 3.16	1111.08 ± 0.11	1098.8 ± 0.11	1084.57 ± 0.1	1068.6 ± 0.1	1051.16 ± 0.09	1031.93 ± 0.09	1010.87 ± 0.09	–
900 kPa, m1 = 6	1194.53 ± 0.16	1180.58 ± 0.15	1165.53 ± 0.14	1149.58 ± 0.13	1132.48 ± 0.13	1114.2 ± 0.12	1094.62 ± 0.12	–
9900 kPa, m1 = 1.06	1042.49 ± 0.1	1032.1 ± 0.09	1018.61 ± 0.08	1002.77 ± 0.07	984.6 ± 0.08	964.31 ± 0.1	941.64 ± 0.13	916.86 ± 0.16
9900 kPa, m1 = 3.16	1114.33 ± 0.16	1102.1 ± 0.15	1087.94 ± 0.14	1072.14 ± 0.12	1054.84 ± 0.11	1036.08 ± 0.1	1015.28 ± 0.09	993.19 ± 0.1
9900 kPa, m1 = 6	1197.36 ± 0.24	1183.46 ± 0.23	1168.53 ± 0.22	1152.7 ± 0.2	1135.74 ± 0.19	1117.84 ± 0.17	1098.38 ± 0.16	1078.2 ± 0.15
19900 kPa, m1 = 1.06	1046.61 ± 0.12	1036.09 ± 0.11	1022.67 ± 0.09	1007 ± 0.07	989.13 ± 0.08	969.29 ± 0.11	947.14 ± 0.15	923.12 ± 0.19
19900 kPa, m1 = 3.16	1117.89 ± 0.22	1105.63 ± 0.21	1091.54 ± 0.19	1075.95 ± 0.16	1058.92 ± 0.14	–	–	998.47 ± 0.09
19900 kPa, m1 = 6	1200.44 ± 0.35	1186.57 ± 0.33	1171.76 ± 0.3	1156.09 ± 0.28	1139.35 ± 0.26	1121.56 ± 0.24	1102.62 ± 0.22	1082.67 ± 0.2
29900 kPa, m1 = 1.06	1050.58 ± 0.15	–	1026.61 ± 0.11	1011.16 ± 0.08	993.51 ± 0.08	974.04 ± 0.11	952.41 ± 0.16	929 ± 0.22
29900 kPa, m1 = 3.16	1121.4 ± 0.29	1109.07 ± 0.26	1095.09 ± 0.24	1079.61 ± 0.21	1062.79 ± 0.18	1044.51 ± 0.15	1024.61 ± 0.12	1003.47 ± 0.09
29900 kPa, m1 = 6	1203.47 ± 0.45	1189.69 ± 0.42	1174.98 ± 0.4	1159.48 ± 0.37	1142.8 ± 0.33	1125.33 ± 0.3	1106.53 ± 0.27	1087.01 ± 0.25
39900 kPa, m1 = 1.06	1054.45 ± 0.18	1043.77 ± 0.16	1030.49 ± 0.13	1015.15 ± 0.09	997.76 ± 0.07	978.6 ± 0.12	957.55 ± 0.17	934.76 ± 0.24
39900 kPa, m1 = 3.16	1124.91 ± 0.36	1112.54 ± 0.33	1098.65 ± 0.29	1083.24 ± 0.26	1066.63 ± 0.22	1048.68 ± 0.18	1029.15 ± 0.14	1008.45 ± 0.11
39900 kPa, m1 = 6	1206.51 ± 0.56	1192.73 ± 0.53	1178.07 ± 0.49	1162.74 ± 0.45	1146.27 ± 0.41	1128.98 ± 0.37	1110.46 ± 0.33	1091.28 ± 0.3
49900 kPa, m1 = 1.06	1058.27 ± 0.22	1047.49 ± 0.19	1034.25 ± 0.15	1019.09 ± 0.11	1002.02 ± 0.07	983.2 ± 0.11	962.42 ± 0.18	940.22 ± 0.25
49900 kPa, m1 = 3.16	1128.21 ± 0.43	1115.9 ± 0.39	1101.95 ± 0.35	1086.77 ± 0.31	1070.44 ± 0.26	1052.68 ± 0.21	–	1013.17 ± 0.12
49900 kPa, m1 = 6	1209.49 ± 0.67	1195.77 ± 0.63	1181.15 ± 0.59	1165.95 ± 0.54	1149.66 ± 0.5	1132.56 ± 0.45	1114.27 ± 0.4	1095.39 ± 0.36
59900 kPa, m1 = 1.06	1061.93 ± 0.26	1051.1 ± 0.23	1037.94 ± 0.18	1022.88 ± 0.13	1006.01 ± 0.08	987.46 ± 0.11	967.35 ± 0.18	945.52 ± 0.26
59900 kPa, m1 = 3.16	1131.46 ± 0.5	1119.2 ± 0.46	1105.34 ± 0.41	1090.25 ± 0.36	1074.07 ± 0.31	1056.58 ± 0.25	1037.71 ± 0.19	1017.78 ± 0.14
59900 kPa, m1 = 6	1212.31 ± 0.79	1198.7 ± 0.74	1184.21 ± 0.69	1169 ± 0.64	1152.86 ± 0.58	1136.03 ± 0.53	1118.04 ± 0.47	1099.39 ± 0.42
68400 kPa, m1 = 1.06	1065.11 ± 0.3	1054.12 ± 0.26	1041.08 ± 0.21	1026.09 ± 0.15	1009.32 ± 0.1	991.15 ± 0.1	971.22 ± 0.18	949.91 ± 0.27
68400 kPa, m1 = 3.16	1134.29 ± 0.57	1121.87 ± 0.52	1108.22 ± 0.47	1093.16 ± 0.41	1077.08 ± 0.35	1059.82 ± 0.29	1041.14 ± 0.22	1021.53 ± 0.16
68400 kPa, m1 = 6	1214.78 ± 0.89	1201.09 ± 0.83	1186.78 ± 0.78	1171.6 ± 0.72	1155.61 ± 0.66	1138.92 ± 0.6	1121.1 ± 0.53	1102.68 ± 0.47
